Laboratory results published in ChEMBL document CHEMBL4507311, “Data for DCP probe A-1155463” (2021).

Assays:
[1] = target: MAP/microtubule affinity-regulating kinase 3 (Homo sapiens) (UniProt P27448); details: Compound concentration 1000.0 nM
[2] = system: Mast/stem cell growth factor receptor Kit (Homo sapiens), P10721 [V559D,T670I]; details: Compound concentration 1000.0 nM
[3] = target: Ephrin type-A receptor 5 (Homo sapiens) (UniProt P54756); details: Compound concentration 1000.0 nM
[4] = target: Dual specificity protein kinase TTK (Homo sapiens) (UniProt P33981); details: Compound concentration 1000.0 nM
[5] = target: Dual specificity testis-specific protein kinase 1 (Homo sapiens) (UniProt Q15569); details: Compound concentration 1000.0 nM
[6] = target: Serine/threonine-protein kinase MRCK gamma (Homo sapiens) (UniProt Q6DT37); details: Compound concentration 1000.0 nM
[7] = target: Serine/threonine-protein kinase PLK2 (Homo sapiens) (UniProt Q9NYY3); details: Compound concentration 1000.0 nM
[8] = target: Fibroblast growth factor receptor 4 (Homo sapiens) (UniProt P22455); details: Compound concentration 1000.0 nM
[9] = target: Mitogen-activated protein kinase 6 (Homo sapiens) (UniProt Q16659); details: Compound concentration 1000.0 nM
[10] = target: Rhodopsin kinase GRK7 (Homo sapiens) (UniProt Q8WTQ7); details: Compound concentration 1000.0 nM
[11] = target: Phosphatidylinositol 3-kinase C2 domain-containing subunit gamma (Homo sapiens) (UniProt O75747); details: Compound concentration 1000.0 nM
[12] = target: Interleukin-1 receptor-associated kinase 1 (Homo sapiens) (UniProt P51617); details: Compound concentration 1000.0 nM
[13] = target: Phosphatidylinositol 5-phosphate 4-kinase type-2 beta (Homo sapiens) (UniProt P78356); details: Compound concentration 1000.0 nM
Phosphatidylinositol 5-phosphate 4-kinase type-2 beta (Homo sapiens), sequence (P78356 whole entry): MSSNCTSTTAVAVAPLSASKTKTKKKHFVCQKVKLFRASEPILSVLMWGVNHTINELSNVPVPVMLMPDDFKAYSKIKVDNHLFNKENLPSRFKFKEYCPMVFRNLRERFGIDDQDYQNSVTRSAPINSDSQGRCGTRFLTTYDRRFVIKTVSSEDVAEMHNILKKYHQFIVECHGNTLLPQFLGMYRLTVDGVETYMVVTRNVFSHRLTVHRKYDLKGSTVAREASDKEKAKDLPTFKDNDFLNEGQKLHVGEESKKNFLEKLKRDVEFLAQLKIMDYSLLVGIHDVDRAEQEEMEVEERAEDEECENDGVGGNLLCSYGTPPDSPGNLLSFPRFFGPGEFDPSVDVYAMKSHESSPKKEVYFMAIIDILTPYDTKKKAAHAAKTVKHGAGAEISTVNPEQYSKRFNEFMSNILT

[14] = target: Tyrosine-protein kinase Fes/Fps (Homo sapiens) (UniProt P07332); details: Compound concentration 1000.0 nM
Tyrosine-protein kinase Fes/Fps (Homo sapiens), sequence (P07332 whole entry): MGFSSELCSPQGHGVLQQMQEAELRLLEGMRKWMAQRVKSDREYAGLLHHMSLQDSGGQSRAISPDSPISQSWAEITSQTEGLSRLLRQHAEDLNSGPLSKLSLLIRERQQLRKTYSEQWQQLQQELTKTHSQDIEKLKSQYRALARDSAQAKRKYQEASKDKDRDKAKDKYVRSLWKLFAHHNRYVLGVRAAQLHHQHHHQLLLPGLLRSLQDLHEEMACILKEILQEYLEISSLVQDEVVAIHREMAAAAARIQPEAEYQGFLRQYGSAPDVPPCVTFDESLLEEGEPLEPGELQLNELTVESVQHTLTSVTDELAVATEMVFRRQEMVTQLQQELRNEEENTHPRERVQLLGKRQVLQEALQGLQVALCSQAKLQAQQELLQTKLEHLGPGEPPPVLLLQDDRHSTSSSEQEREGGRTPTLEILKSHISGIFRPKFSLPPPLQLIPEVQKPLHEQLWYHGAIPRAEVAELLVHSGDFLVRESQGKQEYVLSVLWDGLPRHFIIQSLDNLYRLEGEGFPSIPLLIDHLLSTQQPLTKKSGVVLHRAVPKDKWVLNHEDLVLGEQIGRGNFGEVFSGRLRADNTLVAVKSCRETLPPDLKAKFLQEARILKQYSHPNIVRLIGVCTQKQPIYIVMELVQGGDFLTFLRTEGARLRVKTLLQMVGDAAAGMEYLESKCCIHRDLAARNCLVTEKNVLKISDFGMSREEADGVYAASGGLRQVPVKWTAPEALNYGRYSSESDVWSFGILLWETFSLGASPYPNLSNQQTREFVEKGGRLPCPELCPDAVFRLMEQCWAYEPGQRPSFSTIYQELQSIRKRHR

[15] = system: eIF-2-alpha kinase GCN2 (Homo sapiens), Q9P2K8 [S808G]; details: Compound concentration 1000.0 nM
[16] = target: Muscle, skeletal receptor tyrosine-protein kinase (Homo sapiens) (UniProt O15146); details: Compound concentration 1000.0 nM
[17] = target: Tyrosine-protein kinase receptor Tie-1 (Homo sapiens) (UniProt P35590); details: Compound concentration 1000.0 nM
[18] = target: Alpha-2C adrenergic receptor (Homo sapiens) (UniProt P18825); details: Compound concentration 10.0 uM
[19] = target: Serine/threonine-protein kinase Chk1 (Homo sapiens) (UniProt O14757); details: Compound concentration 1000.0 nM
[20] = target: Ephrin type-B receptor 1 (Homo sapiens) (UniProt P54762); details: Compound concentration 1000.0 nM
[21] = target: Mu-type opioid receptor (Homo sapiens) (UniProt P35372); details: Compound concentration 10.0 uM
[22] = target: Calcium/calmodulin-dependent protein kinase type IV (Homo sapiens) (UniProt Q16566); details: Compound concentration 1000.0 nM
Calcium/calmodulin-dependent protein kinase type IV (Homo sapiens), sequence (Q16566 whole entry): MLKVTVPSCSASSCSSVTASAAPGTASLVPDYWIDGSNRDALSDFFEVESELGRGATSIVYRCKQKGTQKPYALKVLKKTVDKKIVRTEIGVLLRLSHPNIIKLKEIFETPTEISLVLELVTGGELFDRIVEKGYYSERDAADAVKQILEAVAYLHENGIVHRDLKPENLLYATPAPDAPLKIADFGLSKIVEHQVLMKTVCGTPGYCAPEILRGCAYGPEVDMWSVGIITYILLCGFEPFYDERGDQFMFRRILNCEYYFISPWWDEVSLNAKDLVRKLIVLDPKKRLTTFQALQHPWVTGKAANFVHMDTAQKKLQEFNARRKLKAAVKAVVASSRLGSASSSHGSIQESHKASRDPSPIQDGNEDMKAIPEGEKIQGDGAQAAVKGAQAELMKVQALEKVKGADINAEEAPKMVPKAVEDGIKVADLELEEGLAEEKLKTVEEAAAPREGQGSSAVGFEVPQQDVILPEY

[23] = system: Receptor-type tyrosine-protein kinase FLT3 (Homo sapiens), P36888 [D835H]; details: Compound concentration 1000.0 nM
[24] = target: Serine/threonine-protein kinase 36 (Homo sapiens) (UniProt Q9NRP7); details: Compound concentration 1000.0 nM
[25] = target: Platelet-derived growth factor receptor alpha (Homo sapiens) (UniProt P16234); details: Compound concentration 1000.0 nM
[26] = target: NUAK family SNF1-like kinase 2 (Homo sapiens) (UniProt Q9H093); details: Compound concentration 1000.0 nM
[27] = target: Serine/threonine-protein kinase Sgk3 (Homo sapiens) (UniProt Q96BR1); details: Compound concentration 1000.0 nM
Serine/threonine-protein kinase Sgk3 (Homo sapiens), sequence (Q96BR1 whole entry): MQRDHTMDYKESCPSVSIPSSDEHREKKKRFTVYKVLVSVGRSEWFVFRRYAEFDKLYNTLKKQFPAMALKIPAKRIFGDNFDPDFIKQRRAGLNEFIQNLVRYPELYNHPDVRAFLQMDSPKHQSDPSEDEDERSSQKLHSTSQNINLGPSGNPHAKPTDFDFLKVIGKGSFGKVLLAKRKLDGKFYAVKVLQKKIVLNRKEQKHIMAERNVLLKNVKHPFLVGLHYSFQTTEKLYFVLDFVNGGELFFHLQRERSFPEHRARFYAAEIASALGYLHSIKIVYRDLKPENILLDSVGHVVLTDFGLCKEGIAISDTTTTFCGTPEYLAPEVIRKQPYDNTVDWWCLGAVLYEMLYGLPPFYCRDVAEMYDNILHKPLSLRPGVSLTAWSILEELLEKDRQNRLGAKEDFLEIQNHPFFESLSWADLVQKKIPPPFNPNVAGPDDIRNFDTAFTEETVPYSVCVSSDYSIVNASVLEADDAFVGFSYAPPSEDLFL

[28] = target: Misshapen-like kinase 1 (Homo sapiens) (UniProt Q8N4C8); details: Compound concentration 1000.0 nM
Misshapen-like kinase 1 (Homo sapiens), sequence (Q8N4C8 whole entry, looked up): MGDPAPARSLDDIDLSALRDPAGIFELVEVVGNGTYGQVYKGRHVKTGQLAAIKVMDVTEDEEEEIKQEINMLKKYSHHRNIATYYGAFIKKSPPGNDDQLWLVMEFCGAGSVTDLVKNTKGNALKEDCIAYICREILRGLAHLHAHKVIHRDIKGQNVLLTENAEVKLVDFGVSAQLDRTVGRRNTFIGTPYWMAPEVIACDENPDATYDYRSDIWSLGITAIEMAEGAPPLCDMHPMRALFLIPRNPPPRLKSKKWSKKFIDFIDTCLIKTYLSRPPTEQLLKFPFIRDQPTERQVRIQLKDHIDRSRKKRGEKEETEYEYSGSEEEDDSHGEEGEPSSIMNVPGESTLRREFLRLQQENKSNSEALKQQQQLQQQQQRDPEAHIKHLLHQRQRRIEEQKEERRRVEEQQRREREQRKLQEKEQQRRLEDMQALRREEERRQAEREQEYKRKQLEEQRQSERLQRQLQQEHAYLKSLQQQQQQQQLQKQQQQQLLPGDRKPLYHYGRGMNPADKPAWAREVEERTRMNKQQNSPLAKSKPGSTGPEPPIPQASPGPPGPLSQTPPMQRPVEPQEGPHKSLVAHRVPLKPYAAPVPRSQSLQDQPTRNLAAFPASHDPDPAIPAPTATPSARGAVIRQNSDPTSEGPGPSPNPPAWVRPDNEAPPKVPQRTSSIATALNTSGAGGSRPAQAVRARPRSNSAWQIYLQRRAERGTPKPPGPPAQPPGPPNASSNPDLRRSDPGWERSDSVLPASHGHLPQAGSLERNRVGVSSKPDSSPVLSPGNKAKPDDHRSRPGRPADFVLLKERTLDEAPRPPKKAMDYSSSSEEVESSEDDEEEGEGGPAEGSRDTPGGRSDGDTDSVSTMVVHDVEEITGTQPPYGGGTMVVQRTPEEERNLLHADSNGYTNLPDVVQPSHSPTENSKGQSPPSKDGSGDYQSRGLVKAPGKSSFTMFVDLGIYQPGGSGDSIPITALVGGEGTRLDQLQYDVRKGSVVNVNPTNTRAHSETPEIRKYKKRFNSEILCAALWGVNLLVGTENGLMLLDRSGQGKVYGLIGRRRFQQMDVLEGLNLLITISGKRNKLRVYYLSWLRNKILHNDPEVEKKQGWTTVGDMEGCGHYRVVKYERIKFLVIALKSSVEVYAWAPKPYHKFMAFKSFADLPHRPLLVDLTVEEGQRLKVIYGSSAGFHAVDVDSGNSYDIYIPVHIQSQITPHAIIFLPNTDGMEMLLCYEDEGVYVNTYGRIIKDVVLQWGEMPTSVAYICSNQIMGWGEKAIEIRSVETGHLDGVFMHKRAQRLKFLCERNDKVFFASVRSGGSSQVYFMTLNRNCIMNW

[29] = target: Calcium/calmodulin-dependent protein kinase kinase 2 (Homo sapiens) (UniProt Q96RR4); details: Compound concentration 1000.0 nM
[30] = target: Casein kinase I isoform epsilon (Homo sapiens) (UniProt P49674); details: Compound concentration 1000.0 nM
[31] = target: Activin receptor type-1-like (Homo sapiens) (UniProt P37023); details: Compound concentration 1000.0 nM
[32] = target: D(1A) dopamine receptor (Homo sapiens) (UniProt P21728); details: Compound concentration 10.0 uM
[33] = target: Tyrosine-protein kinase JAK1 (Homo sapiens) (UniProt P23458); details: Compound concentration 1000.0 nM
[34] = target: Homeodomain-interacting protein kinase 1 (Homo sapiens) (UniProt Q86Z02); details: Compound concentration 1000.0 nM
[35] = target: Bone morphogenetic protein receptor type-1A (Homo sapiens) (UniProt P36894); details: Compound concentration 1000.0 nM
[36] = target: Calcium/calmodulin-dependent protein kinase type II subunit delta (Homo sapiens) (UniProt Q13557); details: Compound concentration 1000.0 nM
[37] = target: Histamine H1 receptor (Homo sapiens) (UniProt P35367); details: Compound concentration 10.0 uM
[38] = target: Inhibitor of nuclear factor kappa-B kinase subunit epsilon (Homo sapiens) (UniProt Q14164); details: Compound concentration 1000.0 nM
[39] = target: Cyclin-dependent kinase 2 (Homo sapiens) (UniProt P24941); details: Compound concentration 1000.0 nM
[40] = target: Dual specificity mitogen-activated protein kinase kinase 2 (Homo sapiens) (UniProt P36507); details: Compound concentration 1000.0 nM
[41] = target: Mitogen-activated protein kinase kinase kinase 15 (Homo sapiens) (UniProt Q6ZN16); details: Compound concentration 1000.0 nM
[42] = target: Dual specificity protein kinase CLK4 (Homo sapiens) (UniProt Q9HAZ1); details: Compound concentration 1000.0 nM
[43] = target: Discoidin domain-containing receptor 2 (Homo sapiens) (UniProt Q16832); details: Compound concentration 1000.0 nM
[44] = target: Tyrosine-protein kinase SYK (Homo sapiens) (UniProt P43405); details: Compound concentration 1000.0 nM
[45] = target: Homeodomain-interacting protein kinase 3 (Homo sapiens) (UniProt Q9H422); details: Compound concentration 1000.0 nM
Homeodomain-interacting protein kinase 3 (Homo sapiens), sequence (Q9H422 whole entry, looked up): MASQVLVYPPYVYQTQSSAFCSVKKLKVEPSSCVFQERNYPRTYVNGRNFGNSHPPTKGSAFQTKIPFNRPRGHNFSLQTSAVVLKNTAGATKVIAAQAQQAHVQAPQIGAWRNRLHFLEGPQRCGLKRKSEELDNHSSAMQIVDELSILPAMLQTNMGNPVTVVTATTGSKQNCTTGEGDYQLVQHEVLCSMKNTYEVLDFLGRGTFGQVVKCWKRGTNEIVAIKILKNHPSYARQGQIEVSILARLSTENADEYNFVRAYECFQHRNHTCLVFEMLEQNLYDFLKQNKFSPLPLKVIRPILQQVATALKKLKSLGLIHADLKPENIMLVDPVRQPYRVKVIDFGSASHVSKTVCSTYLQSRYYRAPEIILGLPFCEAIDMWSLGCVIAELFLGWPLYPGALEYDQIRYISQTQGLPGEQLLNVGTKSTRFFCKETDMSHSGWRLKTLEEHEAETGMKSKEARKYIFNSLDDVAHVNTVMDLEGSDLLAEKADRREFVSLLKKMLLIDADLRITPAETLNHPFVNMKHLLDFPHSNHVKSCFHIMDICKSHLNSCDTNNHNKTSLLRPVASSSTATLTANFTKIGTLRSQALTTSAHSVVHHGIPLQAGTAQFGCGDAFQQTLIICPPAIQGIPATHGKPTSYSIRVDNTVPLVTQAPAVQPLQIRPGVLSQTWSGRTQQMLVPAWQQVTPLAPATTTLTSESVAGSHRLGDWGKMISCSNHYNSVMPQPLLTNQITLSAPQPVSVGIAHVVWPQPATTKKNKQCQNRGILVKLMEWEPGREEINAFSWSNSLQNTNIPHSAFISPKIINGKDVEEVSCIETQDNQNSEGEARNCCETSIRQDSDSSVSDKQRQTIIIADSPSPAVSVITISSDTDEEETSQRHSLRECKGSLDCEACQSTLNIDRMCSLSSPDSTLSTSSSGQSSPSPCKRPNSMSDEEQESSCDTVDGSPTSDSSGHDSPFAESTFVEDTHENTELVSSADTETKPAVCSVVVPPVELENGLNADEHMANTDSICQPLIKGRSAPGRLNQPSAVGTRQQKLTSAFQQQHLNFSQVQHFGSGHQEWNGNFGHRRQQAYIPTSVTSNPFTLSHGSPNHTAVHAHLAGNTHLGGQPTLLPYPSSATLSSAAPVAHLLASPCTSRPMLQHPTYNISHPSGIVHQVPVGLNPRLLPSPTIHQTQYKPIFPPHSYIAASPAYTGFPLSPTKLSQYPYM

Compound: CN(C)CC#Cc1ccc(OCCCc2sc(N3CCc4cccc(C(=O)Nc5nc6ccccc6s5)c4C3)nc2C(=O)O)c(F)c1 [A-1155463]
- residual activity [1]: 38%
- residual activity [2]: 95%
- residual activity [3]: 98%
- residual activity [4]: 92%
- residual activity [5]: 100%
- residual activity [6]: 90%
- residual activity [7]: 94%
- residual activity [8]: 100%
- residual activity [9]: 94%
- residual activity [10]: 97%
- residual activity [11]: 100%
- residual activity [12]: 100%
- residual activity [13]: 80%
- residual activity [14]: 100%
- residual activity [15]: 83%
- residual activity [16]: 84%
- residual activity [17]: 85%
- inhibition [18]: 10.8%
- residual activity [19]: 89%
- residual activity [20]: 100%
- inhibition [21]: 15.4%
- residual activity [22]: 98%
- residual activity [23]: 93%
- residual activity [24]: 99%
- residual activity [25]: 100%
- residual activity [26]: 82%
- residual activity [27]: 100%
- residual activity [28]: 88%
- residual activity [29]: 100%
- residual activity [30]: 86%
- residual activity [31]: 82%
- inhibition [32]: 24.6%
- residual activity [33]: 97%
- residual activity [34]: 75%
- residual activity [35]: 99%
- residual activity [36]: 72%
- inhibition [37]: 39.8%
- residual activity [38]: 100%
- residual activity [39]: 100%
- residual activity [40]: 100%
- residual activity [41]: 99%
- residual activity [42]: 74%
- residual activity [43]: 83%
- residual activity [44]: 100%
- residual activity [45]: 87%
